The source of these data is ChEMBL document CHEMBL5360649, “Potential Broad-Spectrum Antimicrobial, Wound Healing, and Disinfectant Cationic Peptide Crafted from Snake Venom” (J Med Chem, 2023).

The source made the active and inactive calls. No cut-off for these calls is given here.

In test [1] the test system is Pseudomonas aeruginosa. The experiment in a line: Antibacterial activity against Pseudomonas aeruginosa assessed as inhibition of bacterial growth incubated for 0.5 to 8.5 hrs by microtiter plate reader analysis. Type of test: functional, organism-based. The following applies: dose 1.25-40 µM, time 0.5-8.5 hrs.
The test system of test [2] is Escherichia coli. The experiment in a line: Induction of morphological changes in Escherichia coli at MIC concentration incubated for 60 mins by SEM analysis. Type of test: functional, organism-based.
For test [3], the system named is Klebsiella pneumoniae. The experiment in a line: Induction of morphological changes in carbapenem resistant Klebsiella pneumoniae ATCC BAA-1705 at MIC concentration incubated for 6 hrs by AFM analysis. Type of test: functional, organism-based.
In test [4] the test system is Escherichia coli. The experiment in a line: Induction of morphological changes in Escherichia coli at MIC concentration incubated for 6 hrs by SEM analysis. Type of test: functional, organism-based.
The test system of test [5] is Klebsiella pneumoniae. The experiment in a line: Antibacterial activity against Klebsiella pneumoniae ATCC BAA-1705 assessed as inhibition of bacterial growth at 25 to 100 uM incubated overnight by spotting assay. Type of test: functional, organism-based. The following applies: dose 25-100 µM.
Test [6] concerns Pseudomonas aeruginosa. The experiment in a line: Bactericidal activity against patient-derived Pseudomonas aeruginosa assessed as reduction in bacterial growth incubated for 24 hrs by Mueller Hinton Agar based plate analysis. Type of test: functional.
The test system of another test is Staphylococcus aureus. The experiment in a line: Bactericidal activity against patient-derived Staphylococcus aureus assessed as reduction in bacterial growth incubated for 24 hrs by Mueller Hinton Agar based plate analysis. Type of test: functional.

Take H-FLPIIKWVKKFFWRWR-OH: the Activity result with Pseudomonas aeruginosa [1] was “Dose-Dependent Effect”. The outcome in the test with Escherichia coli [2], in the test on Klebsiella pneumoniae [3], in the test with Escherichia coli [4] and in the test with Klebsiella pneumoniae [5] was Active. For the same substance, the results for the minimum bactericidal concentration (MBC) in the test with Pseudomonas aeruginosa [6] and in the test with Staphylococcus aureus were 6 µM and 8 µM, respectively.

Broadly, the MBC is the lowest tested concentration that kills the bacteria rather than only halting them.
